From ChEMBL document CHEMBL1201862, “PubChem BioAssay data set” (2004)
Where a name gives a salt, the structure may show the parent alone.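 Results reflect a 48-hour exposure of cells in 96-well plates to compound at five concentrations. GI50 is the concentration that inhibits growth by half.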 Activity calls are given as the source filed them. Rule as the data show it: active = GI50 up to about 1.1 µM and inactive = higher. Where a SMILES comes first, the peptide text is derived from it. Non-standard residues stand in square brackets, D forms with d. Residues, ends and D or L forms follow the SMILES beside them. The star is where a group is joined. *: point of attachment. Bn2Val = CC(C)[C@@H](C(=O)*)N(Cc1ccccc1)Cc1ccccc1; NH(4-Cl-benzyl) = Clc1ccc(CN*)cc1; NMeF = CN[CH](Cc1ccccc1)C(=O)O; NMeV = CN[CH](C(=O)O)C(C)C; dNMeA = CN[C@H](C)C(=O)O; Boc = CC(C)(C)OC(=O)*

Assays:
Assay in all cases: NCI anticancer screen, dose series, 48 h
Hs-578T = system: Hs-578T
MDA-MB-231 = system: MDA-MB-231
BT-549 = system: BT-549
MDA-N = system: MDA-N
SNB-78 = system: SNB-78
KM-20L2 = system: KM-20L2
DLD-1 = system: DLD-1

Compound	GI50 (Hs-578T)	GI50 (MDA-MB-231)	GI50 (BT-549)	GI50 (MDA-N)	GI50 (SNB-78)	GI50 (KM-20L2)	GI50 (DLD-1)
COC1=CC(=O)c2c(c(COP(=O)(N(C)CCBr)N(C)CCBr)cn2C)C1=O	0.392 µM (active)	0.296 µM (active)	0.078 µM (active)	0.109 µM (active)			
CCN(CC)CCN1C(=O)c2cccc3cc(N)cc(c23)C1=O	22.7 µM (inactive)	16.9 µM (inactive)	16.1 µM (inactive)	10.3 µM (inactive)			
Oc1ccc(Cl)cc1Cc1cc(Cl)cc(Cc2cc(Cl)ccc2O)c1O	1.88 µM (inactive)	2.53 µM (inactive)	2.79 µM (inactive)	2.66 µM (inactive)			
CCOC(=O)c1ccc(N2C(=O)Cc3ccccc3C2=O)cc1					> 100 µM (inactive)	> 100 µM (inactive)	
Cc1c(/N=C/C=C/c2ccccc2)c(=O)n(-c2ccccc2)n1C	23.1 µM (inactive)	34.8 µM (inactive)	22.8 µM (inactive)	18.5 µM (inactive)			
CN(C)CCCNC(=O)c1cccc2ccccc12					> 100 µM (inactive)		> 100 µM (inactive)
Cc1sc2nc(-c3ccc([N+](=O)[O-])cc3)c(/C=N/N=C(N)N)n2c1C	1.61 µM (inactive)	0.28 µM (active)	1.41 µM (inactive)	0.373 µM (active)			
c1ccc(/C(=N/Nc2ccccn2)c2ncccn2)cc1	2.59 µM (inactive)	0.55 µM (active)	11.5 µM (inactive)	16.5 µM (inactive)			
CN(C)c1ccc(/C=C/C=C\c2cc(/C=C/C=C/c3ccc(N(C)C)cc3)[s+]c3ccccc23)cc1.[O-][Cl+3]([O-])([O-])[O-]					51.4 µM (inactive)	> 100 µM (inactive)	
COC(=O)c1cn(CCCC(=O)O)nn1	> 100 µM (inactive)	> 100 µM (inactive)	> 100 µM (inactive)	> 100 µM (inactive)			
COc1ccc(/C=C2\CCS(=O)(=O)c3ccccc3C2=O)cc1	31.3 µM (inactive)	24.6 µM (inactive)	31.8 µM (inactive)	31.4 µM (inactive)			
COc1ccc(OC)c(NC2=NCCO2)c1	> 100 µM (inactive)	> 100 µM (inactive)		45.4 µM (inactive)			
O=[N+]([O-])c1ccc(CSc2c3ccccc3nc3ccccc23)cc1	3.21 µM (inactive)	13.5 µM (inactive)	18.8 µM (inactive)	9.86 µM (inactive)			
Cc1cc(C)[n+](CCOc2ccc(/C(=C(/Cl)c3ccccc3)c3ccccc3)cc2)c(C)c1.[O-][Cl+3]([O-])([O-])[O-]					2 µM (inactive)	0.847 µM (active)	3.47 µM (inactive)
COc1ccc(-c2cc(-c3ccncc3)nc(N)c2-c2ccc(F)cc2)cc1	> 100 µM (inactive)	> 100 µM (inactive)	37.4 µM (inactive)				
CCOC(=O)/C(=C\c1c[nH]c2ccccc12)P(=O)(OCC)OCC	42.8 µM (inactive)	27.7 µM (inactive)	25.4 µM (inactive)	35.8 µM (inactive)			
CNC1=C(C)C(=O)C(O)=C([C@H](C)CCC=C(C)C)C1=O	28.3 µM (inactive)	48 µM (inactive)	52.2 µM (inactive)	29.6 µM (inactive)			
CCOC(=O)c1cn(C)c(=S)n2c1nc1ccccc12		91.8 µM (inactive)	97.3 µM (inactive)				
COc1ccc2cc(Oc3ccc(Cl)cc3)c(=O)oc2c1	> 100 µM (inactive)	> 100 µM (inactive)	> 100 µM (inactive)	> 100 µM (inactive)			
C=C(Br)CNCC(=C)Br	> 100 µM (inactive)	> 100 µM (inactive)		> 100 µM (inactive)			
CCN(CC)c1ccc2cc(C(=O)Nc3ccccc3OC)c(=N)oc2c1	22.1 µM (inactive)		26.6 µM (inactive)				
C[C@H]1[C@H](C)N1CC(O)Cn1ccnc1[N+](=O)[O-] (some centres undefined)	> 100 µM (inactive)	> 100 µM (inactive)	> 100 µM (inactive)	> 100 µM (inactive)			
O=C(CCO)OCCCCCC/C=C\CCCCCC/C=C\CCCCCCCCOC(=O)CCO		18.5 µM (inactive)	19 µM (inactive)	17.8 µM (inactive)			
CC(C)OP(=O)(OC(C)C)/C(C#N)=C/c1c[nH]c2ccccc12	> 100 µM (inactive)	> 100 µM (inactive)	31 µM (inactive)	> 100 µM (inactive)			
O=C(c1ccco1)N(Cc1cccnc1)C(=S)N(Cc1cccnc1)C(=O)c1ccco1	23.3 µM (inactive)	8.75 µM (inactive)	23.2 µM (inactive)				
C=C(Cl)c1c(OC)cccc1OCc1ccccc1	> 100 µM (inactive)	64.7 µM (inactive)	> 100 µM (inactive)	42 µM (inactive)			
COc1cc(C2=C(C#N)C(N)OC3=C2COc2ccccc23)cc(OC)c1OC (centres undefined)		15.2 µM (inactive)	42.8 µM (inactive)	> 100 µM (inactive)			
S=C1SC(=N\c2ccccc2)/C(=N/c2ccccc2)N1c1ccc2ccccc2c1	64.1 µM (inactive)	> 100 µM (inactive)	> 100 µM (inactive)	> 100 µM (inactive)			

Compound	GI50 (Hs-578T)	GI50 (MDA-MB-231)	GI50 (BT-549)	GI50 (MDA-N)	GI50 (SNB-78)	GI50 (KM-20L2)	GI50 (DLD-1)
CCCO/N=[N+](\[O-])N(CC)CC					> 100 µM (inactive)	> 100 µM (inactive)	
O=C1C=C(NCCc2cc(Br)c(O)c(Br)c2)C(=O)c2[nH]cnc21	7.35 µM (inactive)	29.4 µM (inactive)		18.6 µM (inactive)			
CCN1C(NN)=NS(=O)(=O)c2ccccc21	> 100 µM (inactive)	> 100 µM (inactive)	> 100 µM (inactive)	> 100 µM (inactive)			
COC(=O)N1CC[C@@H]2CCC=C(c3cccc4c3OCO4)[C@@H]21	> 100 µM (inactive)	> 100 µM (inactive)	81.5 µM (inactive)	> 100 µM (inactive)			
C=CCN(CCN(CC=C)S(=O)(=O)c1ccc(C)cc1)S(=O)(=O)c1ccc(C)cc1	> 100 µM (inactive)	> 100 µM (inactive)		> 100 µM (inactive)			
O=C(O)Cc1ccc(Oc2nc3ccccc3nc2-c2cccs2)cc1	61.7 µM (inactive)	> 100 µM (inactive)	30.5 µM (inactive)	82.2 µM (inactive)			
C[C@@H]1C[C@@H](O)[C@@]2(O)C13CC(=O)OC(C3)[C@@H](C)[C@@]2(C)CO (some centres undefined)	> 100 µM (inactive)	> 100 µM (inactive)		> 100 µM (inactive)			
N#CCCN(CCCN(C(=O)N(c1ccccc1)c1ccccc1)c1ccccc1)C(=O)Nc1ccccc1	67.3 µM (inactive)	> 100 µM (inactive)	> 100 µM (inactive)	> 100 µM (inactive)			
CCOC(=O)NC(Nc1ccc(S(=O)(=O)Nc2ccc(OC)nn2)cc1)(C(F)(F)F)C(F)(F)F	35.2 µM (inactive)	18.8 µM (inactive)		42 µM (inactive)			
O=[N+]([O-])c1ccc(/C=N\N=c2/ccc([N+](=O)[O-])c[nH]2)cc1	> 100 µM (inactive)	46 µM (inactive)	> 100 µM (inactive)	> 100 µM (inactive)			
O=C(O)C1(Cc2ccccc2)Cc2ccccc2C1	94.4 µM (inactive)	> 100 µM (inactive)	> 100 µM (inactive)	> 100 µM (inactive)			
CCOC(=O)Oc1cc2c(ccn2C)c2c1c1ccccc1n2C(=O)OCC	> 100 µM (inactive)	> 100 µM (inactive)	> 100 µM (inactive)	> 100 µM (inactive)			
CO[C@]12CC(=O)C3(C(C[C@H]4CC5CC=C6C[C@@H](OC(C)=O)CC[C@]6(OC(C)=O)C5C[C@@]43C)C1)C1C[C@H]3[C@@H]4CC=C5C[C@@H](OC(C)=O)CC[C@]5(OC(C)=O)[C@H]4CC[C@]3(C)C12 (some centres undefined)	32.2 µM (inactive)	14.8 µM (inactive)		13.1 µM (inactive)			
COC(=O)c1ccc(/C=C/C2=CC(=O)C=CC2=O)cc1	44.6 µM (inactive)	10.9 µM (inactive)	5.81 µM (inactive)	41.7 µM (inactive)			
CC1=C(C(=O)OC2CC3CCC2(C)C3(C)C)C2Nc3ccccc3N(C)C2O1 (centres undefined)	3.26 µM (inactive)	3.01 µM (inactive)	2.34 µM (inactive)	1.77 µM (inactive)			
O=C(Nc1ccccc1)c1cc(S(=O)(=O)n2ccnc2O)c(S)cc1Cl	> 100 µM (inactive)	> 100 µM (inactive)	> 100 µM (inactive)	> 100 µM (inactive)			
Cc1oc(N)c(S(=O)(=O)c2ccc(Cl)cc2)c1C	50.7 µM (inactive)		17.6 µM (inactive)				
C[C@H]1SC(c2ccc(Cl)cc2Cl)N(NC(=O)c2ccncc2)C1=O (some centres undefined)	64.7 µM (inactive)	33.9 µM (inactive)	36.6 µM (inactive)	23 µM (inactive)			
C[N+](C)(CCCCCC[N+](C)(C)CCCN1C(=O)c2cccc3cccc(c23)C1=O)CCCN1C(=O)c2cccc3cccc(c23)C1=O	> 100 µM (inactive)	56.2 µM (inactive)	> 100 µM (inactive)	> 100 µM (inactive)			
COc1ccc(C2C(Cl)C(=O)N2NC(=O)c2ccccc2O)cc1OC (centres undefined)					> 100 µM (inactive)		> 100 µM (inactive)
CC1=NN(C(=O)c2ccc(Cl)cc2)C(=O)/C1=C/c1ccccc1O					> 100 µM (inactive)	> 100 µM (inactive)	> 100 µM (inactive)
O=C(CCN1CCCCC1)Nc1ccc2sc3ccccc3c(=O)c2n1	19.9 µM (inactive)	14.7 µM (inactive)	15.5 µM (inactive)	14.3 µM (inactive)			
O=C(NC1CCN(Cc2ccccc2)CC1)c1ccccc1I	17.9 µM (inactive)	24.2 µM (inactive)	51.1 µM (inactive)				
CC(C)[C@H](NC(=O)[C@H](C(C)C)N(Cc1ccccc1)Cc1ccccc1)C(=O)N(C)[C@H](C(=O)N1CCC[C@H]1C(=O)N(C)[C@H](C)C(=O)NCc1ccc(Cl)cc1)C(C)C (Bn2Val-V[NMeV]P[dNMeA]-{NH(4-Cl-benzyl)})	1.05 µM (active)	2.65 µM (inactive)	3.18 µM (inactive)	4.43 µM (inactive)			
CCOC(=O)C(CC(C)C)NC(=O)C(Cc1ccccc1)NC(=O)CNC(=O)OC(C)(C)C (stereo not drawn) (Boc-Gly-Phe-Leu-OEt; configuration not given here)	31.8 µM (inactive)		27.7 µM (inactive)	14.7 µM (inactive)			
CC(C)C(NC(=O)OC(C)(C)C)C(=O)N(C)C(Cc1ccccc1)C(=O)N(C)C(C(=O)N(C)C(C(=O)O)C(C)C)C(C)C (centres undefined) (Boc-V[NMeF][NMeV][NMeV]-OH; configuration not given here)						> 100 µM (inactive)	
c1ccc([C@H]2CN3CCSC3=N2)cc1 [LEVAMISOLE HYDROCHLORIDE]		> 100 µM (inactive)		> 100 µM (inactive)			
